From article PMC5218480 (PLoS ONE, 2017)

System: MV-4-11 cells
Experiment: Gene expression microarray analysis (Affymetrix PrimeView) and GSEA
Type: cell-based, human
Set-up: RFU PODN (11730768_x_at) / Fold change /veh PODN (11730768_x_at) / RFU LINC00158 (11744669_a_at) / Fold change /veh LINC00158 (11744669_a_at) / RFU DUSP10 (11751237_a_at) / Fold change /veh DUSP10 (11751237_a_at) / RFU ID3 (11757404_x_at) / Fold change /veh ID3 (11757404_x_at) / RFU PLEKHG5 (11737974_s_at) / Fold change /veh PLEKHG5 (11737974_s_at) / RFU LRRC4B (11730491_at) / Fold change /veh LRRC4B (11730491_at) / RFU GIMAP4 (11747438_a_at) / Fold change /veh GIMAP4 (11747438_a_at) / RFU KRT8 (11758183_x_at) / Fold change /veh KRT8 (11758183_x_at) / RFU CNN1 (11734310_a_at) / Fold change /veh CNN1 (11734310_a_at) / RFU VPS37D (11726825_at) / Fold change /veh VPS37D (11726825_at) / RFU C10orf10 (11716522_x_at) / Fold change /veh C10orf10 (11716522_x_at) / RFU KIR2DL2 /// KIR2DL4 /// KIR2DL5A /// KIR2DL5B /// KIR2DS1 /// KIR2DS2 /// KIR2DS3 /// KIR2DS4 /// KIR3DL3 /// KIR3DL3 /// KIR3DS1 (11738374_at) / Fold change /veh KIR2DL2 /// KIR2DL4 /// KIR2DL5A /// KIR2DL5B /// KIR2DS1 /// KIR2DS2 /// KIR2DS3 /// KIR2DS4 /// KIR3DL3 /// KIR3DL3 /// KIR3DS1 (11738374_at) / RFU C1QL1 (11718748_at) / Fold change /veh C1QL1 (11718748_at) / RFU TMPRSS4 (11747572_a_at) / Fold change /veh TMPRSS4 (11747572_a_at) / RFU HAMP (11756126_x_at) / Fold change /veh HAMP (11756126_x_at) / RFU RNFT2 (11725882_a_at) / Fold change /veh RNFT2 (11725882_a_at) / RFU NR4A2 (11747474_a_at) / Fold change /veh NR4A2 (11747474_a_at) / RFU ABCC12 (11746883_a_at) / Fold change /veh ABCC12 (11746883_a_at) / RFU TMEM136 (11760407_x_at) / Fold change /veh TMEM136 (11760407_x_at) / RFU CLDN22 /// WWC2 (11732394_at) / Fold change /veh CLDN22 /// WWC2 (11732394_at) / RFU HLA-DPB1 (11760878_x_at) / Fold change /veh HLA-DPB1 (11760878_x_at) / RFU SPINT1 (11716480_a_at) / Fold change /veh SPINT1 (11716480_a_at) / RFU GAP43 (11754022_s_at) / Fold change /veh GAP43 (11754022_s_at) / RFU A4GNT (11735810_at) / Fold change /veh A4GNT (11735810_at) / RFU PRB3 (11715151_x_at) / Fold change /veh PRB3 (11715151_x_at) / RFU TUBB4B (11761932_at) / Fold change /veh TUBB4B (11761932_at) / RFU CAPN14 (11732068_a_at) / Fold change /veh CAPN14 (11732068_a_at) / RFU TMCC2 (11721928_a_at) / Fold change /veh TMCC2 (11721928_a_at) / RFU IRGQ (11745062_a_at) / Fold change /veh IRGQ (11745062_a_at) / RFU FAM174B (11720279_a_at) / Fold change /veh FAM174B (11720279_a_at) / RFU TMPRSS4 (11748680_a_at) / Fold change /veh TMPRSS4 (11748680_a_at) / RFU FAM212B (11763350_a_at) / Fold change /veh FAM212B (11763350_a_at) / RFU PLEKHG5 (11743358_a_at) / Fold change /veh PLEKHG5 (11743358_a_at) / RFU ZSCAN30 (11745921_a_at) / Fold change /veh ZSCAN30 (11745921_a_at) / RFU CMKLR1 (11741424_a_at) / Fold change /veh CMKLR1 (11741424_a_at) / RFU LOC101060620 /// MAPK8IP1 (11723275_at) / Fold change /veh LOC101060620 /// MAPK8IP1 (11723275_at) / RFU SPTSSB (11747773_x_at) / Fold change /veh SPTSSB (11747773_x_at) / RFU PRSS12 (11739890_at) / Fold change /veh PRSS12 (11739890_at) / RFU BIN1 (11741810_x_at) / Fold change /veh BIN1 (11741810_x_at) / RFU WNT11 (11732464_a_at) / Fold change /veh WNT11 (11732464_a_at) / RFU C10orf10 (11716521_a_at) / Fold change /veh C10orf10 (11716521_a_at) / RFU C5orf56 (11738089_at) / Fold change /veh C5orf56 (11738089_at) / RFU CYB561 (11721691_x_at) / Fold change /veh CYB561 (11721691_x_at) / RFU ANKRD19P (11752326_a_at) / Fold change /veh ANKRD19P (11752326_a_at) / RFU OR2T12 /// OR2T33 /// OR2T8 (11738714_s_at) / Fold change /veh OR2T12 /// OR2T33 /// OR2T8 (11738714_s_at) / RFU VCAN (11748164_a_at) / Fold change /veh VCAN (11748164_a_at) / RFU JSRP1 (11732532_at) / Fold change /veh JSRP1 (11732532_at) / RFU KRTAP10-11 (11738290_x_at) / Fold change /veh KRTAP10-11 (11738290_x_at) / RFU MYO3A (11730013_a_at) / Fold change /veh MYO3A (11730013_a_at) / RFU EBF3 (11725865_a_at) / Fold change /veh EBF3 (11725865_a_at) / RFU CAMK2N1 (11719241_x_at) / Fold change /veh CAMK2N1 (11719241_x_at) / RFU C5orf56 (11738088_a_at) / Fold change /veh C5orf56 (11738088_a_at) / RFU OLFML3 (11715873_a_at) / Fold change /veh OLFML3 (11715873_a_at) / RFU LOC100653217 /// NTM (11731650_a_at) / Fold change /veh LOC100653217 /// NTM (11731650_a_at) / RFU MAPK11 (11762145_a_at) / Fold change /veh MAPK11 (11762145_a_at) / RFU FIZ1 (11724087_x_at) / Fold change /veh FIZ1 (11724087_x_at) / RFU OASL (11726364_x_at) / Fold change /veh OASL (11726364_x_at) / RFU SOX15 (11748057_x_at) / Fold change /veh SOX15 (11748057_x_at) / RFU CD79A (11719716_a_at) / Fold change /veh CD79A (11719716_a_at) / RFU HIST1H1D (11736915_at) / Fold change /veh HIST1H1D (11736915_at) / RFU CASKIN2 (11723855_a_at) / Fold change /veh CASKIN2 (11723855_a_at) / RFU LOC730098 (11760151_x_at) / Fold change /veh LOC730098 (11760151_x_at) / RFU OR4N2 (11742367_at) / Fold change /veh OR4N2 (11742367_at) / RFU PRRT2 (11749266_a_at) / Fold change /veh PRRT2 (11749266_a_at) / RFU SNX32 (11753110_a_at) / Fold change /veh SNX32 (11753110_a_at) / RFU CDHR5 (11726645_a_at) / Fold change /veh CDHR5 (11726645_a_at) / RFU RCAN1 (11760418_a_at) / Fold change /veh RCAN1 (11760418_a_at) / RFU FAM167A (11723789_a_at) / Fold change /veh FAM167A (11723789_a_at) / RFU FAM26E (11764081_at) / Fold change /veh FAM26E (11764081_at) / RFU ISYNA1 (11749810_s_at) / Fold change /veh ISYNA1 (11749810_s_at) / RFU ACY1 (11761880_at) / Fold change /veh ACY1 (11761880_at) / RFU 11764098_at / Fold change /veh 11764098_at / RFU SAMD14 (11745864_x_at) / Fold change /veh SAMD14 (11745864_x_at) / RFU NPB (11741838_a_at) / Fold change /veh NPB (11741838_a_at) / RFU TMPRSS6 (11731388_a_at) / Fold change /veh TMPRSS6 (11731388_a_at) / RFU KRTAP10-2 (11738614_at) / Fold change /veh KRTAP10-2 (11738614_at) / RFU ARHGAP8 /// PRR5-ARHGAP8 (11727945_x_at) / Fold change /veh ARHGAP8 /// PRR5-ARHGAP8 (11727945_x_at) / RFU KRTAP5-7 /// NADSYN1 (11734609_at) / Fold change /veh KRTAP5-7 /// NADSYN1 (11734609_at) / RFU RASL12 (11751679_a_at) / Fold change /veh RASL12 (11751679_a_at) / RFU CDKN2B (11736163_a_at) / Fold change /veh CDKN2B (11736163_a_at) / RFU PRF1 (11729649_at) / Fold change /veh PRF1 (11729649_at) / RFU, ZNF638 /// ZNF638-IT1 / Fold change vs veh, ZNF638 /// ZNF638-IT1 / RFU, PANK3 / Fold change vs veh, PANK3 / RFU, SH3YL1 / Fold change vs veh, SH3YL1 / RFU, ZEB2 / Fold change vs veh, ZEB2 / RFU, NRIP1 / Fold change vs veh, NRIP1 / RFU, PTTG1IP / Fold change vs veh, PTTG1IP / RFU, CAPN2 / Fold change vs veh, CAPN2 / RFU, MED14 / Fold change vs veh, MED14 / RFU, SNORA58 / Fold change vs veh, SNORA58 / RFU, C1orf63 / Fold change vs veh, C1orf63 / RFU, LRRFIP1 / Fold change vs veh, LRRFIP1 / RFU, NDUFAF7 / Fold change vs veh, NDUFAF7 / RFU, SLC12A2 / Fold change vs veh, SLC12A2 / RFU, IBTK / Fold change vs veh, IBTK / RFU, ESF1 / Fold change vs veh, ESF1 / Fold change vs veh, TMEM50B / RFU, TAOK1 / Fold change vs veh, TAOK1 / RFU, ACBD3 / Fold change vs veh, ACBD3 / RFU, TMA16 / Fold change vs veh, TMA16 / RFU, RWDD3 / Fold change vs veh, RWDD3 / RFU, BCAT1 / Fold change vs veh, BCAT1 / RFU, EDEM3 / Fold change vs veh, EDEM3 / RFU, TMEM33 / Fold change vs veh, TMEM33 / RFU, WDR75 / Fold change vs veh, WDR75 / RFU, AHCTF1 / Fold change vs veh, AHCTF1 / RFU, TFRC / Fold change vs veh, TFRC / RFU, ZDHHC17 / Fold change vs veh, ZDHHC17 / RFU, NOM1 / Fold change vs veh, NOM1 / RFU, ARL8B / Fold change vs veh, ARL8B / RFU, ZBTB11 / Fold change vs veh, ZBTB11 / RFU, TAMM41 / Fold change vs veh, TAMM41 / RFU, KIAA1704 /// LOC100996395 / Fold change vs veh, KIAA1704 /// LOC100996395 / RFU, ING1 / Fold change vs veh, ING1 / RFU, TRMT61B / Fold change vs veh, TRMT61B / RFU, FUBP3 / Fold change vs veh, FUBP3 / RFU, TP53 / Fold change vs veh, TP53 / RFU, TNKS2 / Fold change vs veh, TNKS2 / RFU, ZFP14 / Fold change vs veh, ZFP14 / RFU, ACTR2 / Fold change vs veh, ACTR2 / RFU, PPP3R1 / Fold change vs veh, PPP3R1 / RFU, PIK3R1 / Fold change vs veh, PIK3R1 / RFU, HNRNPA1 / Fold change vs veh, HNRNPA1 / RFU, RNF170 / Fold change vs veh, RNF170 / RFU, ZNF28 / Fold change vs veh, ZNF28 / RFU, RNGTT / Fold change vs veh, RNGTT / RFU, OGT / Fold change vs veh, OGT / RFU, BRD1 / Fold change vs veh, BRD1 / RFU, MARS / Fold change vs veh, MARS / RFU, ZNF655 / Fold change vs veh, ZNF655 / RFU, FAHD1 / Fold change vs veh, FAHD1 / RFU, BDP1 / Fold change vs veh, BDP1 / RFU, LRRCC1 / Fold change vs veh, LRRCC1 / RFU, ARID1A / Fold change vs veh, ARID1A / RFU, ZNF146 / Fold change vs veh, ZNF146 / RFU, ZNF330 / Fold change vs veh, ZNF330 / RFU, GPN3 / Fold change vs veh, GPN3 / RFU, C9orf123 / Fold change vs veh, C9orf123 / RFU, N4BP2L2 / Fold change vs veh, N4BP2L2 / RFU, ARFIP1 / Fold change vs veh, ARFIP1 / RFU, FAM179B / Fold change vs veh, FAM179B / RFU, BCL10 / Fold change vs veh, BCL10 / RFU, UHRF1BP1L / Fold change vs veh, UHRF1BP1L / RFU, BET1 / Fold change vs veh, BET1 / RFU, CNOT2 / Fold change vs veh, CNOT2 / RFU, ZNF268 / Fold change vs veh, ZNF268 / Fold change vs veh, ZNF507 / RFU, DGCR2 / Fold change vs veh, DGCR2 / RFU, WDSUB1 / Fold change vs veh, WDSUB1 / Fold change vs veh, HSP90B1 /// MIR3652 / RFU, ADSS / Fold change vs veh, ADSS / RFU, GK / Fold change vs veh, GK / RFU, ZNF148 / Fold change vs veh, ZNF148 / RFU, TAF9 / Fold change vs veh, TAF9 / RFU, SLC1A5 / Fold change vs veh, SLC1A5 / RFU, SLMO2 / Fold change vs veh, SLMO2 / RFU, ABCC4 / Fold change vs veh, ABCC4 / RFU, LOC101060439 /// RAP1B / Fold change vs veh, LOC101060439 /// RAP1B / RFU, RFX7 / Fold change vs veh, RFX7 / RFU, GTPBP10 / Fold change vs veh, GTPBP10 / RFU, CNEP1R1 / Fold change vs veh, CNEP1R1 / RFU, BIVM-ERCC5 /// ERCC5 / Fold change vs veh, BIVM-ERCC5 /// ERCC5 / RFU, ILF3 / Fold change vs veh, ILF3 / RFU 11762660_at / Fold change /veh 11762660_at / RFU VCAN (11757783_s_at) / Fold change /veh VCAN (11757783_s_at) / RFU DDX43 (11728927_at) / Fold change /veh DDX43 (11728927_at) / RFU KRT8 (11758188_x_at) / Fold change /veh KRT8 (11758188_x_at) / RFU NKD1 (11759106_at) / Fold change /veh NKD1 (11759106_at) / RFU SRD5A1 (11742802_a_at) / Fold change /veh SRD5A1 (11742802_a_at) / RFU TPSAB1 /// TPSB2 (11721975_s_at) / Fold change /veh TPSAB1 /// TPSB2 (11721975_s_at) / RFU GSTM3 (11746129_a_at) / Fold change /veh GSTM3 (11746129_a_at) / RFU IL23R (11737362_x_at) / Fold change /veh IL23R (11737362_x_at) / RFU TMEM51 (11727254_a_at) / Fold change /veh TMEM51 (11727254_a_at) / RFU PIWIL2 (11732686_x_at) / Fold change /veh PIWIL2 (11732686_x_at) / RFU ORM1 (11744905_x_at) / Fold change /veh ORM1 (11744905_x_at) / RFU CCDC152 (11743942_at) / Fold change /veh CCDC152 (11743942_at) / RFU ECM1 (11717891_a_at) / Fold change /veh ECM1 (11717891_a_at) / RFU IL23R (11748794_a_at) / Fold change /veh IL23R (11748794_a_at) / RFU TNFAIP8L3 (11732012_x_at) / Fold change /veh TNFAIP8L3 (11732012_x_at) / RFU MBOAT4 (11741988_at) / Fold change /veh MBOAT4 (11741988_at) / RFU 11764193_at / Fold change /veh 11764193_at / RFU TMEM53 (11763286_at) / Fold change /veh TMEM53 (11763286_at) / RFU MAGEB2 (11727129_at) / Fold change /veh MAGEB2 (11727129_at) / RFU TMEM200A (11744735_a_at) / Fold change /veh TMEM200A (11744735_a_at) / RFU CCDC152 (11751479_a_at) / Fold change /veh CCDC152 (11751479_a_at) / RFU FAM211A (11726209_a_at) / Fold change /veh FAM211A (11726209_a_at) / RFU RGS16 (11746705_a_at) / Fold change /veh RGS16 (11746705_a_at) / RFU VCAN (11755009_s_at) / Fold change /veh VCAN (11755009_s_at) / RFU RHOB (11743442_s_at) / Fold change /veh RHOB (11743442_s_at) / RFU RGS16 (11720943_a_at) / Fold change /veh RGS16 (11720943_a_at) / RFU RGS16 (11720944_at) / Fold change /veh RGS16 (11720944_at) / RFU, VPS4B / Fold change vs veh, VPS4B / RFU, CREB1 / Fold change vs veh, CREB1 / RFU, DNAJC13 / Fold change vs veh, DNAJC13 / RFU, GNAQ / Fold change vs veh, GNAQ / RFU, CDK5R1 / Fold change vs veh, CDK5R1 / RFU, ZRANB3 / Fold change vs veh, ZRANB3 / RFU, CUL4A / Fold change vs veh, CUL4A / RFU, CCNY / Fold change vs veh, CCNY / RFU, UFL1 / Fold change vs veh, UFL1 / RFU, COG3 / Fold change vs veh, COG3 / RFU, DIAPH2 / Fold change vs veh, DIAPH2 / RFU, SKA2 / Fold change vs veh, SKA2 / RFU, AFF3 / Fold change vs veh, AFF3 / RFU, LMF1 / Fold change vs veh, LMF1 / RFU, IPO11 / Fold change vs veh, IPO11 / RFU, DFFB / Fold change vs veh, DFFB / RFU, FOXP1 / Fold change vs veh, FOXP1 / RFU, CARD8 / Fold change vs veh, CARD8 / RFU, STRN3 / Fold change vs veh, STRN3 / RFU, ADK / Fold change vs veh, ADK / RFU, RASSF2 / Fold change vs veh, RASSF2 / RFU, WIPF1 / Fold change vs veh, WIPF1 / RFU, LARP1B / Fold change vs veh, LARP1B / RFU, RASA1 / Fold change vs veh, RASA1 / RFU, RB1 / Fold change vs veh, RB1 / RFU, PPFIA1 / Fold change vs veh, PPFIA1 / RFU, MAT2A / Fold change vs veh, MAT2A / RFU, CCT5 / Fold change vs veh, CCT5 / RFU, WDR92 / Fold change vs veh, WDR92 / RFU, CUX1 / Fold change vs veh, CUX1 / RFU, TTC7A / Fold change vs veh, TTC7A / RFU, TMEM135 / Fold change vs veh, TMEM135 / RFU, DEPTOR / Fold change vs veh, DEPTOR / RFU, CPM / Fold change vs veh, CPM / RFU, DNAJB6 / Fold change vs veh, DNAJB6 / RFU, CACNA2D3 / Fold change vs veh, CACNA2D3 / RFU, DTX4 / Fold change vs veh, DTX4 / RFU, TFCP2 / Fold change vs veh, TFCP2 / RFU, GMCL1 /// GMCL1P1 / Fold change vs veh, GMCL1 /// GMCL1P1 / RFU, AEBP2 / Fold change vs veh, AEBP2 / RFU, SNHG1 /// SNORD22 /// SNORD25 /// SNORD26 /// SNORD27 /// SNORD28 /// SNORD29 /// SNORD31 / Fold change vs veh, SNHG1 /// SNORD22 /// SNORD25 /// SNORD26 /// SNORD27 /// SNORD28 /// SNORD29 /// SNORD31 / Fold change (Aza/veh), C12orf56 (ProbeSet 11735607_a_at) / Fold change (ACY-1035/veh), C12orf56 (ProbeSet 11735607_a_at) / Fold change (Aza/veh), FGFR1OP (ProbeSet 11751329_s_at) / Fold change (ACY-1035/veh), FGFR1OP (ProbeSet 11751329_s_at) / Fold change (Aza/veh), VPS36 (ProbeSet 11739960_a_at) / Fold change (ACY-1035/veh), VPS36 (ProbeSet 11739960_a_at) / RFU SYPL1 (11715823_x_at) / Fold change /veh SYPL1 (11715823_x_at) / RFU IGFBP7 (11715501_s_at) / Fold change /veh IGFBP7 (11715501_s_at) / RFU REEP3 (11722064_at) / Fold change /veh REEP3 (11722064_at) / RFU IGLL1 (11728026_x_at) / Fold change /veh IGLL1 (11728026_x_at): dose or concentration left out as unconfirmed
Conditions: ProbeSet 11720270_a_at; LIST B

Nc1ncn([C@@H]2O[C@H](CO)[C@@H](O)[C@H]2O)c(=O)n1 [azacitidine] was tested, and the “Fold change vs veh, IBTK” value was 0.96.
